Measurements as given in ChEMBL document CHEMBL4627246, “Pyroglutamide-Based P2X7 Receptor Antagonists Targeting Inflammatory Bowel Disease” (J Med Chem, 2020).

Experiments:
Format in all cases: cell-based
A549 = assay: Cytotoxicity against human A549/ATCC cells assessed as effect on cell growth at 10 uM incubated for 48 hrs by sulforhodamine B assay; details: a549, 48 h
SR = assay: Cytotoxicity against human SR cells assessed as effect on cell growth at 10 uM incubated for 48 hrs by sulforhodamine B assay
EKVX = assay: Cytotoxicity against human EKVX cells assessed as effect on cell growth at 10 uM incubated for 48 hrs by sulforhodamine B assay
K562 = assay: Cytotoxicity against human K562 cells assessed as effect on cell growth at 10 uM incubated for 48 hrs by sulforhodamine B assay; details: k562, 48 h
HOP-62 = assay: Cytotoxicity against human HOP62 cells assessed as effect on cell growth at 10 uM incubated for 48 hrs by sulforhodamine B assay; details: hop-62, 48 h
NCI-H226 = assay: Cytotoxicity against human NCI-H226 cells assessed as effect on cell growth at 10 uM incubated for 48 hrs by sulforhodamine B assay; details: nci-h226, 48 h
NCI-H460 = assay: Cytotoxicity against human NCI-H460 cells assessed as effect on cell growth at 10 uM incubated for 48 hrs by sulforhodamine B assay; details: nci-h460, 48 h
NCI-H522 = assay: Cytotoxicity against human NCI-H522 cells assessed as effect on cell growth at 10 uM incubated for 48 hrs by sulforhodamine B assay; details: nci-h522, 48 h
COLO 205 = assay: Cytotoxicity against human COLO205 cells assessed as effect on cell growth at 10 uM incubated for 48 hrs by sulforhodamine B assay; details: colo 205, 48 h
KM12 = assay: Cytotoxicity against human KM12 cells assessed as effect on cell growth at 10 uM incubated for 48 hrs by sulforhodamine B assay; details: km12, 48 h
SF-295 = assay: Cytotoxicity against human SF295 cells assessed as effect on cell growth at 10 uM incubated for 48 hrs by sulforhodamine B assay; details: sf-295, 48 h
LOX IMVI = assay: Cytotoxicity against human LOXIMVI cells assessed as effect on cell growth at 10 uM incubated for 48 hrs by sulforhodamine B assay
SK-MEL-28 = assay: Cytotoxicity against human SK-MEL-28 cells assessed as effect on cell growth at 10 uM incubated for 48 hrs by sulforhodamine B assay; details: sk-mel-28, 48 h
SK-MEL-5 = assay: Cytotoxicity against human SK-MEL-5 cells assessed as effect on cell growth at 10 uM incubated for 48 hrs by sulforhodamine B assay; details: sk-mel-5, 48 h
UACC-257 = assay: Cytotoxicity against human UACC257 cells assessed as effect on cell growth at 10 uM incubated for 48 hrs by sulforhodamine B assay; details: uacc-257, 48 h
NCI/ADR-RES = assay: Cytotoxicity against human NCI/ADR-RES cells assessed as effect on cell growth at 10 uM incubated for 48 hrs by sulforhodamine B assay
SK-OV-3 = assay: Cytotoxicity against human SKOV3 cells assessed as effect on cell growth at 10 uM incubated for 48 hrs by sulforhodamine B assay; details: sk-ov-3, 48 h
SN12C = assay: Cytotoxicity against human SN12C cells assessed as effect on cell growth at 10 uM incubated for 48 hrs by sulforhodamine B assay
Hs-578T = assay: Cytotoxicity against human Hs 578T cells assessed as effect on cell growth at 10 uM incubated for 48 hrs by sulforhodamine B assay
BT-549 = assay: Cytotoxicity against human BT549 cells assessed as effect on cell growth at 10 uM incubated for 48 hrs by sulforhodamine B assay; details: bt-549, 48 h

Measured: Activity

COc1ccc(CNC(=O)[C@@H]2CCC(=O)N2Cc2ccc(Cl)cc2Cl)c(OC)c1
Non-Toxic: A549 | SR | EKVX | K562 | HOP-62 | NCI-H226 | NCI-H460 | NCI-H522 | COLO 205 | KM12 | SF-295 | LOX IMVI | SK-MEL-28 | SK-MEL-5 | UACC-257 | NCI/ADR-RES | SK-OV-3 | SN12C | Hs-578T | BT-549

COc1ccc(N2C(=O)CC[C@H]2C(=O)NCc2ccc(Cl)cc2Cl)cc1
Non-Toxic: A549 | SR | EKVX | K562 | HOP-62 | NCI-H226 | NCI-H460 | NCI-H522 | COLO 205 | KM12 | SF-295 | LOX IMVI | SK-MEL-28 | SK-MEL-5 | UACC-257 | NCI/ADR-RES | SK-OV-3 | SN12C | Hs-578T | BT-549

O=C(NCc1ccc(Cl)cc1Cl)[C@@H]1COC(=O)N1c1cccs1
Non-Toxic: A549 | SR | EKVX | K562 | HOP-62 | NCI-H226 | NCI-H460 | NCI-H522 | COLO 205 | KM12 | SF-295 | LOX IMVI | SK-MEL-28 | SK-MEL-5 | UACC-257 | NCI/ADR-RES | SK-OV-3 | SN12C | Hs-578T | BT-549

O=C(NCc1ccc(Cl)cc1Cl)[C@@H]1CCC(=O)N1C(c1ccc(Cl)cc1)c1ccc(Cl)cc1
Non-Toxic: A549 | SR | EKVX | K562 | HOP-62 | NCI-H226 | NCI-H460 | NCI-H522 | COLO 205 | KM12 | SF-295 | LOX IMVI | SK-MEL-28 | SK-MEL-5 | UACC-257 | NCI/ADR-RES | SK-OV-3 | SN12C | Hs-578T | BT-549

CN1CCN(/C=C2\C[C@@H](C(=O)NCc3ccc(Cl)cc3Cl)N(c3cccs3)C2=O)CC1
Non-Toxic: A549 | SR | EKVX | K562 | HOP-62 | NCI-H226 | NCI-H460 | NCI-H522 | COLO 205 | KM12 | SF-295 | LOX IMVI | SK-MEL-28 | SK-MEL-5 | UACC-257 | NCI/ADR-RES | SK-OV-3 | SN12C | Hs-578T | BT-549

O=C(NCc1ccc(Cl)cc1Cl)[C@@H]1CCC(=O)N1c1cncs1
Non-Toxic: A549 | SR | EKVX | K562 | HOP-62 | NCI-H226 | NCI-H460 | NCI-H522 | COLO 205 | KM12 | SF-295 | LOX IMVI | SK-MEL-28 | SK-MEL-5 | UACC-257 | NCI/ADR-RES | SK-OV-3 | SN12C | Hs-578T | BT-549

CN1C(=O)C(C)(C)C[C@H]1C(=O)NCc1cccc(C(F)(F)F)c1Cl
Non-Toxic: A549 | SR | EKVX | K562 | HOP-62 | NCI-H226 | NCI-H460 | NCI-H522 | COLO 205 | KM12 | SF-295 | LOX IMVI | SK-MEL-28 | SK-MEL-5 | UACC-257 | NCI/ADR-RES | SK-OV-3 | SN12C | Hs-578T | BT-549

O=C(NCc1ccccc1Cl)[C@@H]1CCC(=O)N1c1ccccc1
Non-Toxic: A549 | SR | EKVX | K562 | HOP-62 | NCI-H226 | NCI-H460 | NCI-H522 | COLO 205 | KM12 | SF-295 | LOX IMVI | SK-MEL-28 | SK-MEL-5 | UACC-257 | NCI/ADR-RES | SK-OV-3 | SN12C | Hs-578T | BT-549

O=C1CCCC(C(=O)NCc2ccc(Cl)cc2Cl)N1 (stereo not given)
Non-Toxic: A549 | SR | EKVX | K562 | HOP-62 | NCI-H226 | NCI-H460 | NCI-H522 | COLO 205 | KM12 | SF-295 | LOX IMVI | SK-MEL-28 | SK-MEL-5 | UACC-257 | NCI/ADR-RES | SK-OV-3 | SN12C | Hs-578T | BT-549
